What was measured:
c-Myc expression = details: Ciceri et al., Nat Chem Biol. 2014; read-out: Published cell potency for reducing c-Myc expression: IC50; cited from earlier work
BRD4(1) bromodomain = BRD4(1) bromodomain (Homo sapiens, UniProt O60885); details: HEK293 cells, n=2
From the text: 2. […] 3. […] 4. Count cells. 5. […] 6. […] 7. […] 8. […] 9.

BRD4(1) = BRD4(1) (Homo sapiens, UniProt O60885); details: 0-100 micromolar; 1 hour at room temperature; 45° C. for 30s
Description: To carry out the assay, a fusion protein [BRD4(1)-ED], which also contains an NFκB DNA binding domain at the N-terminus, was constructed with BRD4(1) and a ProLabel™ enzyme donor (ED) fragment. […] The incubation was for 1 hour at room temperature. The samples were then heated to 45° C. for 30s. EA was subsequently added into the samples (along with luminescent substrate for beta-galactosidase) and complementation was measured by measuring luminescence.
To carry out the assays, two separate samples were prepared wherein one sample comprises BRD4(1)(fusion) and no inhibitor whereas another sample comprises BRD4(1)(fusion) and an inhibitor. […] Following incubation, samples were exposed to increased temperatures (25° C., 45° C., 50° C. and 55° C. respectively). The samples were then centrifuged to separate the precipitate.
To carry out the experiment, a fusion protein was constructed comprising NFκB-BRD4(1)-ED. […] The samples were then exposed to several temperatures (25° C., 45° C., 50° C. and 55° C. respectively).

MTH1 [1] = target: T1, MTH1 (Homo sapiens, UniProt P36639); details: read-out: Published MTH1 potency: In vitro EC50; cited from earlier work
[2] = target: MTH1 hydrolase catalytic domain (Homo sapiens, UniProt P36639); experiment: In-cell pulse thermal denaturation EFC assay, MTH1 hydrolase in HEK293 cells; assay type: cell-based; details: 3 hours with inhibitor at 37° C.; for EC50: preliminary protocol
MTH1 [3] = target: T1, MTH1; details: read-out: Published MTH1 potency: Cellular IC50; cited from earlier work
[4] = target: T2, G9a protein methyltransferase (Homo sapiens, UniProt Q96KQ7); experiment: Cell-free single-step denaturation EFC binding assay, ED-tagged G9a; details: single denaturation step of 3 minutes at 50° C.; signal increase from about 10^2 nM through 10^4 nM
T2 sequence (Q96KQ7 1-1210): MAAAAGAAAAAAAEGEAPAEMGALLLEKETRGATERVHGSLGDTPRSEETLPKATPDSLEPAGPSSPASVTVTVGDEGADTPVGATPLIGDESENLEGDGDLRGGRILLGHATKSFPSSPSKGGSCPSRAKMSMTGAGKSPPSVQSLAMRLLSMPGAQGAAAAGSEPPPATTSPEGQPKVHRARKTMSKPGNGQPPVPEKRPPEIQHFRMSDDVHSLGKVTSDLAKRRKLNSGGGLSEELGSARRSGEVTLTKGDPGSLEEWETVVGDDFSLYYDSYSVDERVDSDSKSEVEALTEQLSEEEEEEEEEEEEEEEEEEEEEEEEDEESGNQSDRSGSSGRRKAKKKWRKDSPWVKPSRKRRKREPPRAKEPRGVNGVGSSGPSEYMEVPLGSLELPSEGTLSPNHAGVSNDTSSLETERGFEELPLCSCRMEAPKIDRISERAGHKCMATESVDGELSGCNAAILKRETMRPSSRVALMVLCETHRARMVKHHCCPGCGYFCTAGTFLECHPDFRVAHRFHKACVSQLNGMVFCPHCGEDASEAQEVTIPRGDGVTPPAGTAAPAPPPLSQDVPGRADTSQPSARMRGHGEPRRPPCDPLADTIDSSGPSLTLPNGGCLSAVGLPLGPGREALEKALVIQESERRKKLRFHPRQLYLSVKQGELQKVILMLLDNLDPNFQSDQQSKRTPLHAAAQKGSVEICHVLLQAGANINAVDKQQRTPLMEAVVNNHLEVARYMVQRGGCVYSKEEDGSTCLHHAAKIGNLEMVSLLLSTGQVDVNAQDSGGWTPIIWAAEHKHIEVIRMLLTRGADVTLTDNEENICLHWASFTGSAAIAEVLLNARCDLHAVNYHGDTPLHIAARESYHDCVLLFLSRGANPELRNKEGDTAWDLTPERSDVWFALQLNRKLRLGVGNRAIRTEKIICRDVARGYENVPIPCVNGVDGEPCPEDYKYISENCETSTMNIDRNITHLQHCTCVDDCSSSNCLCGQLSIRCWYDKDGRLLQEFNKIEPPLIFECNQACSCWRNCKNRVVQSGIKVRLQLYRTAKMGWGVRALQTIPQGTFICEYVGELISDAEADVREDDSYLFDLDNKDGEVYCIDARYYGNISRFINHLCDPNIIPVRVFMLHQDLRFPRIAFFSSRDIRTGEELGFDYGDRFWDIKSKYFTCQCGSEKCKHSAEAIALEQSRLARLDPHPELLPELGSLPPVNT
Description: (§1) Data were fitted with the Hill Equation and EC50s were calculated.
This proof of concept G9a study was performed using a single denaturation step of 3 minutes at 50° C.

G9a catalytic domain = target: T3, G9a catalytic domain (Homo sapiens, UniProt Q96KQ7); experiment: In-cell pulse thermal denaturation EFC assay, G9a methyltransferase in HEK293 cells; assay type: cell-based; details: 3 hour incubation at 37° C.; single 3 minute denaturation step at 48° C.
T3 sequence (Q96KQ7 1-1210): T2 sequence (Q96KQ7 1-1210)
Description: The G9a catalytic domain is expressed with a C-terminal PL tag. A 3 hour incubation with inhibitor at 37° C. is followed by a single 3 minute denaturation step at 48° C.

H3K9me2 = details: Vedadi et al., Nature Chemical Biology 2011; read-out: Published cell potency for reducing H3K9me2: IC50; cited from earlier work
ABL1 protein kinase = target: T4, ABL1 protein kinase (Homo sapiens, UniProt P00519); assay type: binding; details: seven inhibitors; 30 cycles of 7 seconds at 42° C. / 60 seconds at 25° C.
T4 construct: made in house; host or cells: cell extract
Description: as §1
EC50 dose response curves for the seven inhibitors shown on the graph (inhibitor name labels and corresponding curves are in the same left to right order) were measured against ED-tagged ABL1.

T4 sequence (P00519 whole entry): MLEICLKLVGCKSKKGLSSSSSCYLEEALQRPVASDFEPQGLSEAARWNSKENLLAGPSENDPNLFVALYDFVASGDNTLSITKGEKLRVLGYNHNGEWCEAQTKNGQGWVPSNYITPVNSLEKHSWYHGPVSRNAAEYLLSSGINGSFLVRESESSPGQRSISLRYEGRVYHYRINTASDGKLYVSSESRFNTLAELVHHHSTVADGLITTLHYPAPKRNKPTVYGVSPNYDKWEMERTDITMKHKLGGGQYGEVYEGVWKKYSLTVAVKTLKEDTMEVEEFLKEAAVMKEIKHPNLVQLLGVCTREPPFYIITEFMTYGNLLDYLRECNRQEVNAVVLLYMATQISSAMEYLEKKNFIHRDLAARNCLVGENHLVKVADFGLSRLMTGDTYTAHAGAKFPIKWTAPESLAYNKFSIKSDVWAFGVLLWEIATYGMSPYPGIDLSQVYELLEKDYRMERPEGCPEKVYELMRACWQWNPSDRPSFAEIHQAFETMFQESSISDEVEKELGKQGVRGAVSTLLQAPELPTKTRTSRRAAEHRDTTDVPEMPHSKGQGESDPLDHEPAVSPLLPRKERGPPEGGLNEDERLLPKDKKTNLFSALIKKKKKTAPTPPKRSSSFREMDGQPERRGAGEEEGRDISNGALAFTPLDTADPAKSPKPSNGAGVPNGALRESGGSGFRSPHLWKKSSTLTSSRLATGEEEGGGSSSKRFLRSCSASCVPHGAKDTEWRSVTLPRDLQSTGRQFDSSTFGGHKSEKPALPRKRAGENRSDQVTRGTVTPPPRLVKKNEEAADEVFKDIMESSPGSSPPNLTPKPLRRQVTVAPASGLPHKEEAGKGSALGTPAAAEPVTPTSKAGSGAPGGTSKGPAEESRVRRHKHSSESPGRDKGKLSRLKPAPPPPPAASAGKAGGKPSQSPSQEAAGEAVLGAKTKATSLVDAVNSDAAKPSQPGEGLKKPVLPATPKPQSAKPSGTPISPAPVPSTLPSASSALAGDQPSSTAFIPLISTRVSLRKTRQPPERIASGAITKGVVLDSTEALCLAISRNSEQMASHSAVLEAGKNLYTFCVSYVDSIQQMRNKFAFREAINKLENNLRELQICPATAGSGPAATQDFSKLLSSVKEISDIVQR

In the case of Cc1sc2c(c1C)C(c1ccc(Cl)cc1)=N[C@@H](CC(=O)OC(C)(C)C)c1nnc(C)n1-2 [JQ1, (6S)-4-(4-Chlorophenyl)-2,3,9-trimethyl-6H-thieno[3,2-f][1,2,4]triazolo[4,3-a][1,4]diazepine-6-acetic acid, 1,1-dimethylethyl ester], the IC50 (c-Myc expression) is given as about 100 nM, the “Assay Window” value (BRD4(1) bromodomain) is given as 3.5 +/− 0.14 and the “Rescue of BRD4(1) fusion protein from heat denaturation, dose response” value (BRD4(1)) is given as “rescue the fusion protein from denaturation in a dose-dependent manner”.
For COc1ccc2nc3c(c(C)nn3C)c(NCCOCCO)c2c1 [SCH 51344], the EC50 (MTH1 [1]) is listed as 50 nM, the “Assay Window” value ([2]; denaturation 45° C./1.5 min.) is listed as 1.9 and the EC50 ([2]; denaturation 45° C./1.5 min.) is listed as 370 nM. The “Assay Window” value ([2]; denaturation 48° C./3.0 min.) was 9.7, the EC50 ([2]; denaturation 48° C./3.0 min.) was 4600 nM and the IC50 (MTH1 [3]) was under 20000 nM.
For COc1cc2c(NC3CCN(C(C)C)CC3)nc(C3CCCCC3)nc2cc1OCCCN1CCCC1 [UNC0538, 2-Cyclohexyl-6-methoxy-N-[1-(1-methylethyl)-4-piperidinyl]-7-[3-(1-pyrrolidinyl)propoxy]-4-quinazolinamine], the “Protection against denaturation of G9a, dose response” value [4] is given as “increases in a dose-dependent manner”, the “Assay Window” value (G9a catalytic domain) is given as 5.0 and the IC50 (H3K9me2) is given as about 81 nM.
With CC(C)[C@H](CO)Nc1nc(Nc2ccc(C(=O)O)c(Cl)c2)c2ncn(C(C)C)c2n1 [purvalanol B] the “Affinity rank order for ABL1 from dose response curves” value (ABL1 protein kinase) was “lowest affinity”.
